Results reported in patent US8778966B2, “Quinolinone derivatives as PARP and tank inhibitors” (Janssen Pharmaceutica, NV, priority 2007, dated 2014).

Molecular target: T1, Human PARP-1 enzyme (Homo sapiens, UniProt P09874)
T1 construct: purchased Trevigen
Assay: In vitro Scintillation Proximity Assay (SPA) for PARP-1 inhibitory activity
Assay type: biochemical
Conditions: read-out: in vitro SPA assay PARP-1 pIC50 (converted)
In short: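 SPA assay: nicked-DNA-activated PARP-1 (0.1–0.2 μg/ml) ADP-ribosylates biotinylated histones (2 μg/ml) using [3H]-NAD+, 20 min at RT in Tris pH 8/DTT/MgCl2, stopped with 2 mM NAD+. Blank-subtracted cpm expressed as % control; IC50 by linear interpolation, reported as pIC50 (10−5 to 3×10−9 M tested).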

T1 sequence (P09874 whole entry): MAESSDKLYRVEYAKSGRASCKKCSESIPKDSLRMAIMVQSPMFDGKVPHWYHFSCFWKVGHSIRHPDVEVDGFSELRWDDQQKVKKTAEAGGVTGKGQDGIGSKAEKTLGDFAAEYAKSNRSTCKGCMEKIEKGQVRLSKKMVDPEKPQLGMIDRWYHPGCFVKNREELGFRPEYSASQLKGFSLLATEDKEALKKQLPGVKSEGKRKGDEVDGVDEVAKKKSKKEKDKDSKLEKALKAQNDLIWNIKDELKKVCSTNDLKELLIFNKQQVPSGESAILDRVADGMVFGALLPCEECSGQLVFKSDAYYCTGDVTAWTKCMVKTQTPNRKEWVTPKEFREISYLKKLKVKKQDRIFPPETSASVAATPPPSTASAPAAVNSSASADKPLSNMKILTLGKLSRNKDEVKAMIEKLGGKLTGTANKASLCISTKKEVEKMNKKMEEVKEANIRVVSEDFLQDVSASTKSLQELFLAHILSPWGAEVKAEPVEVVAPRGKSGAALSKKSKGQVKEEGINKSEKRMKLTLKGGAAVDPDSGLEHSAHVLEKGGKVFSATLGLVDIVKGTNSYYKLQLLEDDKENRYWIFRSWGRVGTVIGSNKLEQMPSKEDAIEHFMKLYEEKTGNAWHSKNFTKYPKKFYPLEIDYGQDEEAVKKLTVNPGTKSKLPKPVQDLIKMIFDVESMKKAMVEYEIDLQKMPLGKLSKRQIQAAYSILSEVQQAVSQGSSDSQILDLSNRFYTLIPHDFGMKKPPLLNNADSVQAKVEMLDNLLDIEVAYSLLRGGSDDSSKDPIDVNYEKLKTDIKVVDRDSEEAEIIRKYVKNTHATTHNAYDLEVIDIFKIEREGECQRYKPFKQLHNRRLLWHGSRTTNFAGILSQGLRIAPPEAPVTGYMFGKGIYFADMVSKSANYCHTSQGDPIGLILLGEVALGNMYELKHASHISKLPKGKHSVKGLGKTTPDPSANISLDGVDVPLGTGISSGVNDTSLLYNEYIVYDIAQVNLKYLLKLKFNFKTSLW

Structure (SMILES): CCc1cc2ccc(C(C)(C#N)Cc3cccc(N4CCCC4)n3)cc2[nH]c1=O (stereo not drawn) [Compound 226]
- IC50: 50.1 nM

Structure (SMILES): CCc1cc2ccc(C(C#N)(CC)Cc3nc(C#N)cc(OC)n3)cc2[nH]c1=O (stereo not drawn) [Compound 316]
- IC50: 39.8 nM

Structure (SMILES): CCc1cc2ccc(C(C)(C#N)Cc3cccc(C4(N)CC4)c3)cc2[nH]c1=O (stereo not drawn) [Compound 180]
- IC50: 25.1 nM

Structure (SMILES): CCc1cc2ccc(C(C)(C#N)Cc3ccnc(C#N)c3)cc2[nH]c1=O (stereo not drawn) [Compound 324]
- IC50: 39.8 nM

Structure (SMILES): CCc1cc2ccc(C(C)(C#N)C3CCc4ccc(Br)cc43)cc2[nH]c1=O (single isomer, unassigned) [Compound 381]
- IC50: 79.4 nM

Structure (SMILES): Cc1cc2ccc(C(C)(C#N)Cc3cc(F)cc(F)c3)cc2[nH]c1=O (stereo not drawn) [Compound 282]
- IC50: 100 nM

Structure (SMILES): CCc1cc2ccc([C@](C)(C#N)C[C@H]3CCc4ccccc4O3)cc2[nH]c1=O (single isomer, unassigned) [Compound 396]
- IC50: 100 nM

Structure (SMILES): CCc1cc2ccc(C(C)(C#N)Cc3ccnc(Cl)c3)cc2[nH]c1=O (stereo not drawn) [Compound 341]
- IC50: 63.1 nM

Structure (SMILES): CCc1cc2ccc(C(C#N)(CC)Cc3cccc(OC)c3)cc2[nH]c1=O (stereo not drawn) [Compound 287]
- IC50: 39.8 nM

Structure (SMILES): Cc1cc2ccc([C@@](C)(C#N)[C@H]3CCc4cc(Br)ccc43)cc2[nH]c1=O [Compound 241]
- IC50: 200 nM

Structure (SMILES): CCc1cc2ccc(C(C)(C#N)Cc3cccc(F)n3)cc2[nH]c1=O (stereo not drawn) [Compound 331]
- IC50: 31.6 nM

Structure (SMILES): Cc1cc2ccc(C(C)(C#N)C3CCc4c(C#N)cccc43)cc2[nH]c1=O (racemic) [Compound 393]
- IC50: 100 nM

Structure (SMILES): CCc1cc2ccc(C(C)(C#N)Cc3cccc(-c4ccccc4)c3)cc2[nH]c1=O (stereo not drawn) [Compound 18]
- IC50: 2000 nM

Structure (SMILES): CCc1cc2cc(C)c(C(C)(C#N)Cc3cccc(C#N)n3)cc2[nH]c1=O (stereo not drawn) [Compound 208]
- IC50: 100 nM

Structure (SMILES): CCOc1cc(C#N)nc(CC(C)(C#N)c2ccc3cc(CC)c(=O)[nH]c3c2)n1 (stereo not drawn) [Compound 315]
- IC50: 63.1 nM

Structure (SMILES): Cc1cc2ccc(C(C)(C#N)Cc3cccc(Oc4ccccc4)n3)cc2[nH]c1=O (stereo not drawn) [Compound 193]
- IC50: 100 nM

Structure (SMILES): CCc1cc2ccc(C(C#N)(CC)Cc3cccc(F)c3)cc2[nH]c1=O (stereo not drawn) [Compound 270]
- IC50: 39.8 nM

Structure (SMILES): Cc1cc2ccc(C(C)(C#N)Cc3cccc(C#N)n3)cc2[nH]c1=O (stereo not drawn) [Compound 227]
- IC50: 100 nM

Structure (SMILES): CCc1cc2ccc(C(C)(C#N)Cc3cccc(N(C)C)c3)cc2[nH]c1=O (stereo not drawn) [Compound 20]
- IC50: 398 nM

Structure (SMILES): CCc1cc2ccc(C(C)(C#N)Cc3cc(F)cc(C#N)c3)cc2[nH]c1=O (stereo not drawn) [Compound 266]
- IC50: 50.1 nM

Structure (SMILES): CCc1cc2ccc(C(C)(C#N)Cc3cc(C)nc(C#N)c3)cc2[nH]c1=O (stereo not drawn) [Compound 328]
- IC50: 63.1 nM

Structure (SMILES): CCc1cc2ccc(C(C)(C#N)Cc3ccc(OC)nc3Cl)cc2[nH]c1=O (stereo not drawn) [Compound 224]
- IC50: 12.6 nM

Structure (SMILES): Cc1cc2ccc([C@@](C)(C#N)[C@@H]3CCCc4ccccc43)cc2[nH]c1=O [Compound 382]
- IC50: 501 nM

Structure (SMILES): CCc1cc2ccc(C(C)(C#N)Cc3cc(C)cc(Br)c3)cc2[nH]c1=O (stereo not drawn) [Compound 284]
- IC50: 31.6 nM

Structure (SMILES): Cc1cc2ccc([C@@](C)(C#N)[C@H]3CCc4ccc(Br)cc43)cc2[nH]c1=O [Compound 405]
- IC50: 316 nM

Structure (SMILES): CCc1cc2ccc(C(C)(C#N)Cc3ccc(Cl)nc3Cl)cc2[nH]c1=O (stereo not drawn) [Compound 212]
- IC50: 20 nM

Structure (SMILES): CCc1cc2ccc(C(C)(C#N)CCOc3nccc(OC)n3)cc2[nH]c1=O (stereo not drawn) [Compound 223]
- IC50: 50.1 nM

Structure (SMILES): CCc1cc2ccc(C(C)(C#N)CCCN(C)C(=O)c3ccc(F)cc3)cc2[nH]c1=O (stereo not drawn) [Compound 188]
- IC50: 79.4 nM

Structure (SMILES): Cc1cc2ccc([C@@](C)(C#N)[C@@H]3CCc4cc(Br)ccc43)cc2[nH]c1=O [Compound 240]
- IC50: 200 nM

Structure (SMILES): CCc1cc2ccc(C(C)(C#N)Cc3cc(C)cc(C#N)c3)cc2[nH]c1=O (stereo not drawn) [Compound 174]
- IC50: 39.8 nM

Structure (SMILES): CCc1cc2ccc(C(C)(C#N)Cc3cc4ccccc4nn3)cc2[nH]c1=O (stereo not drawn) [Compound 238]
- IC50: 39.8 nM

Structure (SMILES): CCc1cc2ccc(C(C)(C#N)Cc3cc(F)cc(F)c3)cc2[nH]c1=O (stereo not drawn) [Compound 402]
- IC50: 50.1 nM

Structure (SMILES): COc1cc2ccc(C(C)(C#N)Cc3cccc(C#N)n3)cc2[nH]c1=O (stereo not drawn) [Compound 218]
- IC50: 631 nM
